Measured values published in patent publication US11654140B2, “Treatment of ocular inflammatory diseases using laquinimod” (Active Biotech AB, priority 2012, dated 2023).

Key:
[1] = tested on: S-antigen-induced uveitis in albino rats; assay: Ocular vs oral laquinimod in S-antigen-induced uveitis in albino rats, clinical score (Example 10); assay type: in vivo, rat; conditions: once daily, 7 days
[2] = tested on: S-antigen-induced uveitis in albino rats; assay: Ocular vs oral laquinimod in S-antigen-induced uveitis in albino rats, histological analysis (Example 10); assay type: in vivo, rat; conditions: for Histological ocular evaluation, % Inhibition: Day 19
[3] = tested on: subject suffering from uveitis; assay: Laquinimod for treating uveitis (Example 4); assay type: in vivo; conditions: laquinimod composition administered to the eye, once daily
Procedure: In the examples 4-9 below, the administration of the composition is once daily. The administration can be repeated daily for a period of one, two, three or four days, up to 14 days, or longer as necessary. A laquinimod composition as described herein is administered to the eye of a subject suffering from uveitis. The administration of the composition is effective to treat the subject suffering from uveitis. The administration of the composition is also effective to reduce intraocular inflammation in the subject. The administration of the composition is also effective to reduce retina tissue destruction in the subject.

[4] = tested on: subject suffering from bacterial conjunctivitis; assay: Laquinimod for treating bacterial conjunctivitis (Example 5); assay type: in vivo; conditions: laquinimod composition, once daily
Procedure: (§1) In the examples 4-9 below, the administration of the composition is once daily. The administration can be repeated daily for a period of one, two, three or four days, up to 14 days, or longer as necessary.
A laquinimod composition as described herein is administered to a subject suffering from bacterial conjunctivitis. The administration of the composition is effective to treat the subject suffering from bacterial conjunctivitis. The administration of the composition is also effective to reduce intraocular inflammation in the subject.

[5] = tested on: subject suffering from an inflammation of the orbital tissue, the lacrimal apparatus, the eyelid, the cornea, the retina or the optic pathway; assay: Laquinimod for treating inflammation in the eye (Example 7); assay type: in vivo; conditions: laquinimod composition, once daily
Procedure: as §1
A laquinimod composition as described herein is administered to a subject suffering from an inflammation of the orbital tissue, the lacrimal apparatus, the eyelid, the cornea, the retina or the optic pathway in the eye. The administration of the composition is effective to treat the subject suffering from the inflammation. The administration of the composition is also effective to reduce intraocular inflammation in the subject.

[6] = tested on: subject suffering from allergic conjunctivitis; assay: Laquinimod for treating allergic conjunctivitis (Example 8); assay type: in vivo; conditions: 0.2 mg-0.5 mg laquinimod/day
Procedure: as §1
A laquinimod composition as described herein is administered to a subject suffering from allergic conjunctivitis at 0.2 mg-0.5 mg laquinimod/day. The administration of the composition is effective to treat the subject suffering from allergic conjunctivitis. The administration of the composition is also effective to reduce intraocular inflammation in the subject. The administration of the composition is also effective to inhibit late ocular anaphylaxis in the subject. The administration of the composition is also effective reduce eosinophil infiltration into the conjunctiva of the subject.

[7] = 1%, 1× 10 μl instillation/day for 7 days in both eyes
[8] = 1%, 1×/day for 7 days, 1 mL/kg, per os
[9] = 5%, 1× 10 μl instillation/day for 7 days in both eyes
[10] = 5%, 1×/day for 7 days, 1 mL/kg, per os

CCN(C(=O)c1c(O)c2c(Cl)cccc2n(C)c1=O)c1ccccc1 [Laquinimod, laquinimod]
% Inhibition of clinical score on Day 16 ([1]; 1% PO): 24% | % Inhibition of clinical score on Day 16 ([1]; 1% eye drops): −75% | % Inhibition of clinical score on Day 16 ([1]; 5% PO): 39% | % Inhibition of clinical score on Day 16 ([1]; 5% eye drops): 31% | Histological ocular evaluation (scale 0-7) Both Eyes/Day 19, mean [2, 7]: 2.8 | Histological ocular evaluation, % Inhibition [2, 7]: 7.00% | Histological ocular evaluation (scale 0-7) Both Eyes/Day 19, mean [2, 8]: 2.3 | Histological ocular evaluation, % Inhibition [2, 8]: 23.00% | Histological ocular evaluation (scale 0-7) Both Eyes/Day 19, mean [2, 9]: 1.8 | Histological ocular evaluation, % Inhibition [2, 9]: 40.00% | Histological ocular evaluation (scale 0-7) Both Eyes/Day 19, mean [2, 10]: 1.2 | Histological ocular evaluation, % Inhibition [2, 10]: 60.00% | treat the subject suffering from uveitis [3]: effective | reduce intraocular inflammation in the subject ([3]; uveitis): effective | reduce retina tissue destruction in the subject ([3]; uveitis): effective | treat the subject suffering from bacterial conjunctivitis [4]: effective | reduce intraocular inflammation in the subject ([4]; bacterial conjunctivitis): effective | reduce intraocular inflammation in the subject ([5]; inflammation in the eye): effective | treat the subject suffering from the inflammation ([5]; inflammation of orbital tissue, lacrimal apparatus, eyelid, cornea, retina or optic pathway): effective | treat the subject suffering from allergic conjunctivitis [6]: effective | inhibit late ocular anaphylaxis in the subject ([6]; allergic conjunctivitis): effective | reduce eosinophil infiltration into the conjunctiva of the subject ([6]; allergic conjunctivitis): effective | reduce intraocular inflammation in the subject ([6]; allergic conjunctivitis): effective
